The IC50 is the concentration that inhibits the measured activity by half. As usually defined, the Kd is the constant that tells how readily two partners part at equilibrium.

Where a name gives a salt, the structure may show the parent alone. Read-outs that look alike come from different tables or passages of the source. Positions of bridges follow the written chain, without caps; N, C: chain ends. Non-standard residues stand in square brackets, D forms with d. Residues, ends and D or L forms follow the SMILES beside them. Triazole bridges read from a SMILES are 1,4-linked. Chains are numbered I, II in the order given. *: point of attachment. DOTA = O=C(O)CN1CCN(CC(=O)O)CCN(CC(=O)*)CCN(CC(=O)O)CC1; Trp(5-OH) = N[C@@H](Cc1c[nH]c2ccc(O)cc12)C(=O)O; NMePhe(4-F) = CN[C@@H](Cc1ccc(F)cc1)C(=O)O; Lys(N3) = [N-]=[N+]=NCCCC[C@H](N)C(=O)O; NMehPhe = CN[C@@H](CCc1ccccc1)C(=O)O; NMeAoc(2) = CCCCCC[C@H](NC)C(=O)O; Aad = N[C@@H](CCCC(=O)O)C(=O)O; Gly(cPr) = N[C@H](C(=O)O)C1CC1; NMeK = CN[C@@H](CCCCN)C(=O)O; NMeDap = CN[C@@H](CN)C(=O)O; hLys = NCCCCC[C@H](N)C(=O)O; Pra = C#CC[C@H](N)C(=O)O; Sar = CNCC(=O)O Where only a bound is given, the exact number is not on record here.

Holding throughout (assay type): binding
In experiment [1] the target is T1, mouse HER2 (23-653) (Mus musculus, UniProt P70424). Description: TR-FRET competition assay for peptide potency, mouse HER2. Set-up: mouse HER2 (23-653) using a Cy5 labeled peptide as a probe; made in house; host or cells: mammalian cells. The following applies: 0.1 nM mouse HER2, 24 h incubation.
Experiment [2] has as its target T1, mouse HER2 (23-653). Put plainly: Surface plasmon resonance (SPR) for assessment of peptide affinity, mouse HER2. Set-up: mouse HER2 (23-653) using a Cy5 labeled peptide as a probe; made in house. The text has this:
Each protein was immobilized either onto a SA sensorchip (Cytiva, BR-1005-31) or CM5 sensorchip (Cytiva, BR-1005-30) to a density of 800-2000 RU.
Background: SPR reads the build-up and loss of mass on a sensor chip optically.

The target of experiment [3] is T2, human HER2 (23-652) (Homo sapiens, UniProt P04626). Put plainly: TR-FRET competition assay for peptide potency, human HER2. The following applies: read-out: huHER2 TR-FRET IC50. Details: towards human HER2 (23-652) and mouse HER2 (23-653); made in house; host or cells: mammalian cells. How it is done: Both proteins containing a His-, Avi-tag and biotin in Nterminus, were expressed in mammalian cells and produced in house. […] Standard assay conditions consist of 20 uL total volume in white 384-well plates (Greiner), in 10 mM HEPES buffer containing 150 mM NaCl, 3 mM EDTA, 0.05% Tween20 and 1% final DMSO. […] The ratiometric FRET assay readout is calculated from the ratio of the raw data of the two distinct fluorescence signals measured in time resolved mode (fluorescence 665 nm/fluorescence 620 nm). IC50 values were calculated with the standard Novartis in-house assay data analysis software (Helios software application, Novartis Institutes for BioMedical Research, unpublished) using the methods described in Comput. Methods. Programs. Biomed. 2006, 82, 31-37 (regression algorithms for nonlinear dose-response curve fitting).
A general note: TR-FRET usually uses a lanthanide donor and a delayed reading to cut background.

Experiment [4] concerns the target T2, human HER2 (23-652). Description: Surface plasmon resonance (SPR) for assessment of peptide affinity, human HER2. Set-up: towards human HER2 (23-652) and mouse HER2 (23-653); made in house. The following applies: SPR, human HER2 extracellular domain, 25° C., 1:1 binding model; read-out: huHER2-SPR-ONC KD. The method, boiled down: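 Binding kinetics fitted from sensorgrams with 280 s peptide association then 3000 s dissociation (30 uL/min), using HER2 (23-652) either directly immobilized (SA/CM5) or anti-Fc-captured; 3 M magnesium chloride used for regeneration.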

The mark [5] stands for this setting: TR-FRET competition with Cy5 labeled peptide probe, read-out: moHER2 TR-FRET IC50.
Where [6] appears, read: SPR, mouse HER2 extracellular domain, 25° C., 1:1 binding model, read-out: moHER2-SPR-ONC KD.
Where [7] appears, read: TR-FRET competition with Cy5 labeled peptide probe, 0.1 nM human HER2, 24 h incubation.

As for `CCCCCC[C@H]1C(=O)N(C)[C@@H](CCCCNC(C)=O)C(=O)N[C@@H](Cc2c[nH]c3ccc(O)cc23)C(=O)N[C@@H](Cc2c[nH]c3ccccc23)C(=O)N[C@@H](C2CC2)C(=O)N(C)[C@H](C(=O)N(C)[C@@H](Cc2ccc(F)cc2)C(N)=O)CNC(=O)CCC[C@H](NC(C)=O)C(=O)N[C@@H](Cc2ccc(O)cc2)C(=O)N[C@@H](CO)C(=O)N1C` [Example A20, (3S,6S,9S,12S,15S,18S,21S,24S,27S)-9-((1H-indol-3-yl)methyl)-27-acetamido-15-(4-acetamidobutyl)-N-((S)-1-amino-3-(4-fluorophenyl)-1-oxopropan-2-yl)-6-cyclopropyl-18-hexyl-12-((5-hydroxy-1H-indol-3-yl)methyl)-24-(4-hydroxybenzyl)-21-(hydroxymethyl)-N,4,16,19-tetramethyl-5,8,11,14,17,20,23,26,31-nonaoxo-1,4,7,10,13,16,19,22,25-nonaazacyclohentriacontane-3-carboxamide] (Ac-[Aad]YS[NMeAoc(2)][NMeK](Ac)[Trp(5-OH)]W[Gly(cPr)][NMeDap][NMePhe(4-F)]-NH2; lactam 1-9), in experiment [1] (setting [5]), the IC50 stood at 4.7 nM. In experiment [2] (setting [6]), the Kd came to 2.5 nM.
For the compound `CC(=O)NCCCC[C@H]1C(=O)N[C@@H](Cc2c[nH]c3ccc(O)cc23)C(=O)N[C@@H](Cc2c[nH]c3ccccc23)C(=O)N[C@@H](C2CC2)C(=O)N(C)[C@H](C(=O)N(C)[C@@H](Cc2ccc(F)cc2)C(N)=O)CNC(=O)CC[C@H](N)C(=O)N[C@@H](Cc2ccc(O)cc2)C(=O)N[C@@H](CO)C(=O)N(C)[C@@H](CCc2ccccc2)C(=O)N1C` [Example A32, (3S,6S,9S,12S,15S,18S,21S,24S,27S)-9-((1H-indol-3-yl)methyl)-15-(4-acetamidobutyl)-27-amino-N-((S)-1-amino-3-(4-fluorophenyl)-1-oxopropan-2-yl)-6-cyclopropyl-12-((5-hydroxy-1H-indol-3-yl)methyl)-24-(4-hydroxybenzyl)-21-(hydroxymethyl)-N,4,16,19-tetramethyl-5,8,11,14,17,20,23,26,30-nonaoxo-18-phenethyl-1,4,7,10,13,16,19,22,25-nonaazacyclotriacontane-3-carboxamide TFA salt], the IC50 in experiment [1] (moHER2 TR-FRET IC50, TR-FRET competition with Cy5 labeled peptide probe) worked out at 2.6 nM. Moreover, the dissociation constant (Kd) in experiment [2] came out at 2.2 nM.
For the compound `COCCOCCOCCOCCOCCOCCOCCOCCOCCOCCOCCOCCC(=O)N[C@H]1CCCC(=O)NC[C@@H](C(=O)N(C)[C@@H](Cc2ccc(F)cc2)C(=O)N[C@@H](CCCCNC(=O)CN2CCN(CC(=O)O)CCN(CC(=O)O)CCN(CC(=O)O)CC2)C(N)=O)N(C)C(=O)[C@H](C2CC2)NC(=O)[C@H](Cc2c[nH]c3ccccc23)NC(=O)[C@H](Cc2c[nH]c3ccc(O)cc23)NC(=O)[C@H](CCCCNC(C)=O)N(C)C(=O)[C@H](CCc2ccccc2)N(C)C(=O)[C@H](CO)NC(=O)[C@H](Cc2ccc(O)cc2)NC1=O` [Example C2], the Kd in experiment [2] (setting [6]) came out at 0.2 nM.
For the compound `CC(=O)NCCCC[C@H]1C(=O)N[C@@H](Cc2c[nH]c3ccc(O)cc23)C(=O)N[C@@H](Cc2c[nH]c3ccccc23)C(=O)N[C@@H](C2CC2)C(=O)N(C)[C@H](C(=O)N(C)[C@@H](Cc2ccc(F)cc2)C(=O)N[C@@H](CCCCCNC(=O)CN2CCN(CC(=O)O)CCN(CC(=O)O)CCN(CC(=O)O)CC2)C(N)=O)CNC(=O)CCC[C@H](NC(C)=O)C(=O)N[C@@H](Cc2ccc(O)cc2)C(=O)N[C@@H](CO)C(=O)N(C)[C@@H](CCc2ccccc2)C(=O)N1C` [Example C17] (Ac-[Aad]YS[NMehPhe][NMeK](Ac)[Trp(5-OH)]W[Gly(cPr)][NMeDap][NMePhe(4-F)][hLys](DOTA)-NH2; lactam 1-9), the IC50 was under 0.1 nM in experiment [3] (setting [7]) and 0.1 nM in experiment [1] (setting [5]). In addition, the Kd in experiment [4] was under 0.1 nM.
As to `CC(=O)NCCCC[C@H]1C(=O)N[C@@H](Cc2c[nH]c3ccc(O)cc23)C(=O)N[C@@H](Cc2c[nH]c3ccccc23)C(=O)N[C@@H](C2CC2)C(=O)N(C)[C@H](C(=O)N(C)[C@@H](Cc2ccc(F)cc2)C(=O)N[C@@H](CCCCNC(=O)CN2CCN(CC(=O)O)CCN(CC(=O)O)CCN(CC(=O)O)CC2)C(N)=O)CNC(=O)CCC[C@H](N)C(=O)N[C@@H](Cc2ccc(O)cc2)C(=O)N[C@@H](CO)C(=O)N(C)[C@@H](CCc2ccccc2)C(=O)N1C` [Example C18], the IC50 in experiment [3] (setting [7]) is 0.1 nM; in experiment [1] (setting [5]), 0.6 nM. Moreover, in experiment [4], the Kd was found to be 0.1 nM.
For `CC(=O)NCCCC[C@H]1C(=O)N[C@@H](Cc2c[nH]c3ccc(O)cc23)C(=O)N[C@@H](Cc2c[nH]c3ccccc23)C(=O)N[C@@H]([C@H](C)O)C(=O)N(C)[C@H](C(=O)N(C)[C@@H](Cc2ccc(F)cc2)C(=O)N[C@@H](CCCCNC(=O)N2CCN(CC(=O)O)CC2)C(N)=O)CNC(=O)CC[C@H](NC(=O)CN2CCN(CC(=O)O)CCN(CC(=O)O)CCN(CC(=O)O)CC2)C(=O)N[C@@H](Cc2ccc(O)cc2)C(=O)N[C@@H](CO)C(=O)N(C)[C@@H](CCc2ccccc2)C(=O)N1C` [Example C27], in experiment [1] (setting [5]), the IC50 came to 57 nM. Further, the Kd in experiment [2] (setting [6]) was 54 nM.
`CC(=O)NCCCC[C@H]1C(=O)N[C@@H](Cc2c[nH]c3ccc(O)cc23)C(=O)N[C@H](Cc2c[nH]c3ccccc23)C(=O)N[C@@H](C2CC2)C(=O)N(C)[C@H](C(=O)N(C)[C@@H](Cc2ccc(F)cc2)C(=O)N[C@@H](CCCCNC(=O)CN2CCN(CC(=O)O)CCN(CC(=O)O)CCN(CC(=O)O)CC2)C(N)=O)CNC(=O)CCC[C@H](NC(C)=O)C(=O)N[C@@H](Cc2ccc(O)cc2)C(=O)N[C@@H](CO)C(=O)N(C)[C@@H](CCc2ccccc2)C(=O)N1C` [Example C31]: the IC50 is 4840 nM in experiment [3] (setting [7]) and over 10000 nM in experiment [1] (setting [5]). Moreover, the Kd in experiment [4] was over 6000 nM.
Take `CC(=O)NCCCC[C@H]1C(=O)N[C@@H](Cc2c[nH]c3ccc(O)cc23)C(=O)N[C@@H](Cc2c[nH]c3ccccc23)C(=O)N[C@@H](C2CC2)C(=O)N(C)[C@H](C(=O)N(C)[C@@H](Cc2ccc(F)cc2)C(=O)N[C@@H](CCCCNC(=O)CC[C@H](C(=O)O)N2CCN(CC(=O)O)CCN(CC(=O)O)CCN(CC(=O)O)CC2)C(N)=O)CNC(=O)CCC[C@H](NC(C)=O)C(=O)N[C@@H](Cc2ccc(O)cc2)C(=O)N[C@@H](CO)C(=O)N(C)[C@@H](CCc2ccccc2)C(=O)N1C` [Example C33]: the Kd in experiment [2] (setting [6]) was under 0.1 nM.
Consider `COCCOCCOCCOCCOCCOCCOCCOCCOCCOCCOCCOCCC(=O)N[C@H]1CCCC(=O)NC[C@@H](C(=O)N(C)[C@@H](Cc2ccc(F)cc2)C(=O)N[C@@H](CCCCNC(=O)c2ccc(F)nc2)C(N)=O)N(C)C(=O)[C@H](C2CC2)NC(=O)[C@H](Cc2c[nH]c3ccccc23)NC(=O)[C@H](Cc2c[nH]c3ccc(O)cc23)NC(=O)[C@H](CCCCNC(C)=O)N(C)C(=O)[C@H](CCc2ccccc2)N(C)C(=O)[C@H](CO)NC(=O)[C@H](Cc2ccc(O)cc2)NC1=O` [Example F3], for which the IC50 in experiment [3] was under 0.1 nM; in experiment [1] (setting [5]) it was 0.3 nM. Besides, the Kd in experiment [4] was under 0.1 nM.
In the case of `CCCCCCCCCCCC(CCCCCCCCCCC(=O)O)(C(=O)O)C(=O)NCCOCCOCCOCCOCCOCCOCCOCCOCCOCCOCCOCCOCCOCCOCCOCCOCCOCCOCCOCCOCCOCCOCCOCCOCCC(=O)N[C@H]1CCCC(=O)NC[C@@H](C(=O)N(C)[C@@H](Cc2ccc(F)cc2)C(=O)N[C@@H](CCCCNC(=O)CN2CCN(CC(=O)O)CCN(CC(=O)O)CCN(CC(=O)O)CC2)C(N)=O)N(C)C(=O)[C@H](C2CC2)NC(=O)[C@H](Cc2c[nH]c3ccccc23)NC(=O)[C@H](Cc2c[nH]c3ccc(O)cc23)NC(=O)[C@H](CCCCNC(C)=O)N(C)C(=O)[C@H](CCc2ccccc2)N(C)C(=O)[C@H](CO)NC(=O)[C@H](Cc2ccc(O)cc2)NC1=O` (some centres unmarked) [Example G1], the IC50 in experiment [3] (setting [7]) was 1 nM; in experiment [1] (setting [5]), 3.8 nM. In experiment [4], the Kd is 0.7 nM.
On to “I: Ac-[Pra][Sar][Sar][Sar][Sar][Sar][Sar][Sar][Sar][Sar][Sar][Sar][Sar][Sar][Sar]K(DOTA)[Sar][Sar][Sar][Sar][Sar][Sar][Sar][Sar][Sar][Sar][Sar][Sar][Sar][Sar][Pra]-NH2 / II: Ac-[Aad]YS[NMehPhe][NMeK](Ac)[Trp(5-OH)]W[Gly(cPr)][NMeDap][NMePhe(4-F)][Lys(N3)]-NH2 / III: Ac-[Aad]YS[NMehPhe][NMeK](Ac)[Trp(5-OH)]W[Gly(cPr)][NMeDap][NMePhe(4-F)][Lys(N3)]-NH2 (triazole I:1-II:11, I:31-III:11; lactam II:1-II:9, III:1-III:9) [Example C4]”, for which the IC50 was determined as 0.1 nM in experiment [3] (setting [7]) and 0.4 nM in experiment [1] (setting [5]). The Kd in experiment [4] is under 0.1 nM.

The record behind these values is US20250332300A1 (priority 2024, published 2025).
